Where two headings read alike, the source gives them in different places.
What was measured:
[1] = biological target: T1, BCL-XL (Homo sapiens (Human), UniProt Q07817); assay: 1D 1H-NMR binding assay; conditions: 4-point-rating scale; compounds 200 μM, BCL-XL 25 μM; note: key: +++: Very Active; ++: Active; +: Mild; −: Weak
Experimental: By observing the aliphatic region of the spectra, binding could be readily detected due to chemical shift changes in active site methyl groups of Ile, Leu, Thr, Val or Ala (region between −0.8 and 0.3 ppm). All experiments were performed with a 600 MHz spectrometer Bruker Avance 600 equipped with four rf channels and z-axis pulse-field gradients.

[2] = Plasma stability; format: in vitro ADME, rat; conditions: rat plasma, 1 h, 37.5° C.
Experimental: A 20 μL aliquot of a 10 mM solution in DMSO of the test compound was added to […] of heparinized rat plasma (Lampire, P1-150N) to obtain a 100 μM final solution. The mixture was incubated for 1 h at 37.5° C. Aliquots of 100 μL were taken (0, 30 min, 1 h) and diluted with 200 μL of MeOH containing internal standard.

[3] = Liver microsomal stability; conditions: for Microsomal Stability (T = 1 hr): rat liver microsomes, 4 μM, 60 min; for microsomal stability compared to apogossypol: rat microsomal preparations
Experimental: Pooled rat liver microsomes (BD Biosciences, #452701) were preincubated with test compounds at 37.5° C. for 5 min in the absence of NADPH. The reaction was initiated by addition of NADPH and then incubated under the same conditions. […] One aliquot (100 μL) of the incubation mixture was withdrawn at 0, 15, 30, and 60 min and combined immediately with 200 μL of ACN/MeOH containing an internal standard. After mixing, the sample was centrifuged at approximately 13,000 rpm for 12 min. The supernatant was transferred into an autosampler vial and the amount of test compound was quantified using the Shimadzu LCMS 2010EV mass spectrometer. The change of the AUC (area under the curve) of the parent compound as function of time was used as a measure of microsomal stability.

[4] = PAMPA (parallel artificial membrane permeation assay); conditions: PAMPA, pH 7.2, 8 h
Experimental: PAMPA is parallel artificial membrane permeation assay. A 96-well microtiter plate (Millipore, # MSSACCEPTOR) was completely filled with aqueous buffer solution (pH 7.2) and covered with a microtiter filterplate (Millipore, # MAPBMN310). The hydrophobic filter material was impregnated with a 10% solution of hexadecane in hexane and the organic solvent was allowed to completely evaporate. Permeation studies were started by the transfer of 200 μL of a 100 μM test compound solution on top of the filterplate. In general phosphate buffer at pH 7.2 buffer was used. The maximum DMSO content of the stock solutions was <5%. In parallel, an equilibrium solution lacking a membrane was prepared using the exact concentrations and specifications but lacking the membrane. The concentrations of the acceptor and equilibrium solutions were determined using the Shimadzu LCMS-2010EV and AUC methods. The permeation of a compound through the membrane layer is described by the percentage permeation (% flux). The flux values were calculated considering the concentration of the acceptor compartment after 8 h and that of a reference well with the same concentration containing no membrane barrier.

[5] = test system: H460 cell line; assay: Cell viability, ATP-LITE assay; format: cell-based, human
Experimental: (§1) The activity of the compounds against human cancer cell lines (PC3ML, H460, H1299, RS11846) were assessed by using the ATP-LITE assay (PerkinElmer). All cells were seeded in either F12 or RPMI1640 medium with 5 mM L-glutamine supplemented with 5% fetal bovine serum (Mediatech Inc.), penicillin and streptomycin (Omega). For maintenance, cells were cultured in 5% FBS. Cells plated into 96 well plates at varying initial densities depending on doubling time. H460 and H1299 plated at 2000 cells/well, A549 and PC3 at 3000 cells/well, and RS118456S at 10,000 cells/well. Compounds were diluted to final concentrations with 0.1% DMSO. Prior to dispensing compounds onto cells, fresh 5% media was placed into wells. Administration of compounds occurred 24 hours after seeding into the fresh media. Cell viability was evaluated using ATP-LITE reagent (PerkinElmer) after 72 hours of treatment. Data were normalized to the DMSO control-treated cells using Prism version 5.01 (Graphpad Software).

[6] = test system: RS11846 cell line; assay: Apoptosis, Annexin V and propidium iodide assay; format: cell-based, human
Experimental: The apoptotic activity of the compounds against RS11846 cells was assessed by staining with Annexin V- and propidium iodide (PI). Lymphoma cell line, RS11846, was cultured in RPMI 1640 medium (Mediatech Inc., Herndon, Va. 20171) containing 10% fetal bovine serum (Mediatech Inc., Herndon, Va. 20171) and Penicillin/Streptomycin (Mediatech Inc., Herndon, Va. 20171). […] The percentage of viable cells was determined by FITC-Annexin V- and propidium iodide (PI)-labeling, using an Apoptosis Detection kit (BioVision Inc.), and analyzing stained cells by flow cytometry (FACSort; Bectin-Dickinson, Inc.; Mountain View, Calif.). Cells that were annexin-V-negative and PI-negative were considered viable.

[7] = biological target: GST-BCL-XL ΔTM protein (Homo sapiens (Human), UniProt Q07817); assay: Competitive fluorescence polarization assay (FITC-Bak BH3 peptide); format: binding
Experimental: For competitive binding assays, 100 nM GST-BCL-XL ΔTM protein was preincubated with the tested compound at varying concentrations in 47.5 μL PBS (pH=7.4) in 96-well black plates at room temperature for 10 min, then 2.5 μL of 100 nM FITC-labeled Bak BH3 peptide was added to produce a final volume of 50 μL. The wild-type and mutant Bak BH3 peptides were included in each assay plate as positive and negative controls, respectively.
(§2) IC50 was determined by fitting the experimental data to a sigmoidal dose-response nonlinear regression model (SigmaPlot 10.0.1, Systat Software, Inc., San Jose, Calif., USA). Data reported are mean of three independent experiments ±standard error (SE). […] Fluorescence polarization was measured after 10 min.

[8] = biological target: GST-BCL-2 (Homo sapiens (Human), UniProt P10415); assay: Fluorescence polarization assay (FITC-Bim BH3 peptide); format: binding; conditions: read-out: EC50 FPA BCL-2
Experimental: as §2, with “After 30 min incubation at room temperature, the polarization values in millipolarization units were measured at excitation/emission wavelengths of 480/535 nm with a multilabel plate reader (PerkinElmer). IC50” for “IC50”, “(SE). Performance of BCL-2 and Mcl-1 FPA are similar.” for “(SE).”

[9] = biological target: GST-Mcl-1 (Homo sapiens (Human), UniProt Q07820); assay: as above; format: binding; conditions: read-out: EC50 FPA Mcl-1
Experimental: as §2, with “After 30 min incubation at room temperature, the polarization values in millipolarization units were measured at excitation/emission wavelengths of 480/535 nm with a multilabel plate reader (PerkinElmer). IC50” for “IC50”

[10] = biological target: T1, BCL-XL; assay: Isothermal titration calorimetry (ITC); format: binding; conditions: 25° C., pH 7.4
Experimental: Titrations were performed using a VP-ITC or ITC200 calorimeter from Microcal (Northampton, Mass.). BCL-XL was used at concentrations between 25 and 100 μM in 20 mM sodium phosphate buffer (pH 7.4) and 5-10% DMSO. Titrants were used at concentrations 10-15× of the protein in the same buffer. Titrations were carried out at 25° C. Data were analyzed using Microcal Origin software provided by the ITC manufacturer (Microcal, Northampton, Mass.).

[11] = test system: PC3ML cells; assay: Cell viability, ATP-LITE assay; format: cell-based, human; conditions: 72 hours, ATP-LITE
Experimental: as §1

[12] = 1-2 days; read-out: RS11846 EC50 (Annexin V- and propidium iodide assay)

T1 sequence (Q07817 whole entry): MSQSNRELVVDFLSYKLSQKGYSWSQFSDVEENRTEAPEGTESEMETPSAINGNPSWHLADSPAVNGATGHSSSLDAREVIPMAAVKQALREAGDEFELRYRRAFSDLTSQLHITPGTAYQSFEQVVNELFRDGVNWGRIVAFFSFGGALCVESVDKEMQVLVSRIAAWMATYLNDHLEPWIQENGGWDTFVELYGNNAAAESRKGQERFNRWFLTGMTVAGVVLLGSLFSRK
GST-BCL-XL ΔTM protein, sequence (Q07817 1-209): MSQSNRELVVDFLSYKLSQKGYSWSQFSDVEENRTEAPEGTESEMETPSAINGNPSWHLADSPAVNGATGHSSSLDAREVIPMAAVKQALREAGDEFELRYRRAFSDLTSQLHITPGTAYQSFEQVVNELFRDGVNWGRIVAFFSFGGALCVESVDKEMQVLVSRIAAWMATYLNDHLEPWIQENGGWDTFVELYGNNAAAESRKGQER
GST-Mcl-1, sequence (Q07820 whole entry): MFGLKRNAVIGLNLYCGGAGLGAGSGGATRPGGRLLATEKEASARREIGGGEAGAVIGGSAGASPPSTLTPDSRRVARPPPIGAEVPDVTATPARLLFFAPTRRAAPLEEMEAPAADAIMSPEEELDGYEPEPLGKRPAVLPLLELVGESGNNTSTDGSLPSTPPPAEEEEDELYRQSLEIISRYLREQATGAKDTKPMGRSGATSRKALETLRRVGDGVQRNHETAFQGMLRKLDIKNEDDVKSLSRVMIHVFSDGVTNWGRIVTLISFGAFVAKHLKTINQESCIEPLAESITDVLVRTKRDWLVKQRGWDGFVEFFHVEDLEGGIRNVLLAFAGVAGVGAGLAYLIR
GST-BCL-2, sequence (P10415 whole entry): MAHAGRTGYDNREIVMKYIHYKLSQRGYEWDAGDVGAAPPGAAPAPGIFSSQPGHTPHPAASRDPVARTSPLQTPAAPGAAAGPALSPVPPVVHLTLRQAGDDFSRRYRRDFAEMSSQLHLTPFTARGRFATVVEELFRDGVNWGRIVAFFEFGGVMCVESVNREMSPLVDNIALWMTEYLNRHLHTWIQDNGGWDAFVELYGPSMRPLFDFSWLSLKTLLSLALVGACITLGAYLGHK

1D 1H-NMR Binding Assay (BCL-XL) [1] | Structure (SMILES) | Plasma Stability (T = 1 hr) [2] [%] | Cell Permeability [4] | further results
+ | Cc1cc2c(C(=O)c3ccccc3)c(O)c(O)cc2c(O)c1-c1c(C)cc2c(C(=O)c3ccccc3)c(O)c(O)cc2c1O [Compound VII, (1,1′,6,6′,7,7′-hexahydroxy-3,3′-dimethyl-2,2′-binaphthyl-5,5′-diyl)bis(phenylmethanone)] |  |  | EC50 ([5]; 72 hours, ATP-LITE): 310 nM
+ | Cc1cc2c(C(=O)c3ccc(C(F)(F)F)cc3)c(O)c(O)cc2c(O)c1-c1c(C)cc2c(C(=O)c3ccc(C(F)(F)F)cc3)c(O)c(O)cc2c1O [Compound XI, (1,1′,6,6′,7,7′-hexahydroxy-3,3′-dimethyl-2,2′-binaphthyl-5,5′-diyl)bis((4-(trifluoromethyl)phenyl)methanone)] |  |  | EC50 [6, 12]: 3.8 µM
+ | Cc1cc2c(C(=O)c3cccc4ccccc34)c(O)c(O)cc2c(O)c1-c1c(C)cc2c(C(=O)c3cccc4ccccc34)c(O)c(O)cc2c1O [Compound VIII, (1,1′,6,6′,7,7′-hexahydroxy-3,3′-dimethyl-2,2′-binaphthyl-5,5′-diyl)bis(naphthalen-1-ylmethanone)] | 62 | Low | EC50 ([7]; Table 3, read-out: EC50 FPA BCL-XL): 160 nM; EC50 [8]: 1900 nM; EC50 [9]: 2200 nM; Kd [10]: 2750 nM; EC50 [6, 12]: 4.2 µM; Microsomal Stability (T = 1 hr) [3]: 52%
+ | Cc1cc2c(C(=O)CCc3ccc(F)cc3)c(O)c(O)cc2c(O)c1-c1c(C)cc2c(C(=O)CCc3ccc(F)cc3)c(O)c(O)cc2c1O [Compound XVI, 1,1′-(1,1′,6,6′,7,7′-hexahydroxy-3,3′-dimethyl-2,2′-binaphthyl-5,5′-diyl)bis(3-(4-fluorophenyl)propan-1-one)] |  |  | 
++ | Cc1cc2c(C(=O)CC3CCCCC3)c(O)c(O)cc2c(O)c1-c1c(C)cc2c(C(=O)CC3CCCCC3)c(O)c(O)cc2c1O [Compound XV, 1,1′-(1,1′,6,6′,7,7′-hexahydroxy-3,3′-dimethyl-2,2′-binaphthyl-5,5′-diyl)bis(2-cyclohexylethanone)] |  |  | 
− | Cc1cc2c(C(=O)c3ccc(C(C)(C)C)cc3)c(O)c(O)cc2c(O)c1-c1c(C)cc2c(C(=O)c3ccc(C(C)(C)C)cc3)c(O)c(O)cc2c1O [Compound X, (1,1′,6,6′,7,7′-hexahydroxy-3,3′-dimethyl-2,2′-binaphthyl-5,5′-diyl)bis((4-tert-butylphenyl)methanone)] |  |  | 

Continued, molecule first:

Structure (SMILES) | 1D 1H-NMR Binding Assay (BCL-XL) [1] | Plasma Stability (T = 1 hr) [2] [%] | Cell Permeability [4] | further results
Cc1cc2c(C(=O)C3CCCC3)c(O)c(O)cc2c(O)c1-c1c(C)cc2c(C(=O)C3CCCC3)c(O)c(O)cc2c1O [Compound VI, (1,1′,6,6′,7,7′-hexahydroxy-3,3′-dimethyl-2,2′-binaphthyl-5,5′-diyl)bis(cyclopentylmethanone)] | + | 79 | Low | Microsomal Stability (T = 1 hr) [3]: 27%; microsomal stability compared to apogossypol [3]: degraded faster than apogossypol
CCCCC(=O)c1c(O)c(O)cc2c(O)c(-c3c(C)cc4c(C(=O)CCCC)c(O)c(O)cc4c3O)c(C)cc12 [Compound XX, 1,1′-(1,1′,6,6′,7,7′-hexahydroxy-3,3′-dimethyl-2,2′-binaphthyl-5,5′-diyl)dipentan-1-one] | + |  |  | 
CCCCC(CC)CC(=O)c1c(O)c(O)cc2c(O)c(-c3c(C)cc4c(C(=O)CC(CC)CCCC)c(O)c(O)cc4c3O)c(C)cc12 (centres unmarked) [Compound V, 1,1′-(1,1′,6,6′,7,7′-hexahydroxy-3,3′-dimethyl-2,2′-binaphthyl-5,5′-diyl)bis(3-ethylheptan-1-one)] | + |  |  | 
Cc1ccc(CC(=O)c2c(O)c(O)cc3c(O)c(-c4c(C)cc5c(C(=O)Cc6ccc(C)cc6)c(O)c(O)cc5c4O)c(C)cc23)cc1 [Compound XII, 1,1′-(1,1′,6,6′,7,7′-hexahydroxy-3,3′-dimethyl-2,2′-binaphthyl-5,5′-diyl)bis(2-p-tolylethanone)] |  | 72 | Low and Medium | EC50 [8]: 780 nM; EC50 [9]: 1100 nM; times more potent than apogossypol, H460 EC50 [5]: 4-5 times; EC50 [11]: 2500 nM; EC50 ([6]; read-out: RS11846 EC50 (Annexin V- and propidium iodide assay); 1-2 days): 3 µM
Cc1cc2c(C(=O)c3ccc(-c4ccccc4)cc3)c(O)c(O)cc2c(O)c1-c1c(C)cc2c(C(=O)c3ccc(-c4ccccc4)cc3)c(O)c(O)cc2c1O [Compound IX, (1,1′,6,6′,7,7′-hexahydroxy-3,3′-dimethyl-2,2′-binaphthyl-5,51-diyl)bis(biphenyl-4-ylmethanone)] | − |  |  | 
Cc1cc2c(C(=O)C(C)(C)C)c(O)c(O)cc2c(O)c1-c1c(C)cc2c(C(=O)C(C)(C)C)c(O)c(O)cc2c1O [Compound XVIII, 1,1′-(1,1′,6,6′,7,7′-hexahydroxy-3,3′-dimethyl-2,2′-binaphthyl-5,5′-diyl)bis(2,2-dimethylpropan-1-one)] | ++ | 90 | Medium | Microsomal Stability (T = 1 hr) [3]: 30%; microsomal stability compared to apogossypol [3]: degraded faster than apogossypol
Cc1cc2c(C(=O)Cc3cccc(Br)c3)c(O)c(O)cc2c(O)c1-c1c(C)cc2c(C(=O)Cc3cccc(Br)c3)c(O)c(O)cc2c1O [Compound XIII, 1,1′-(1,1′,6,6′,7,7′-hexahydroxy-3,3′-dimethyl-2,2′-binaphthyl-5,5′-diyl)bis(2-(3-bromophenyl)ethanone)] | ++ |  |  | 
Cc1cc2c(C(=O)C(C)C)c(O)c(O)cc2c(O)c1-c1c(C)cc2c(C(=O)C(C)C)c(O)c(O)cc2c1O [Compound III, 1,1′-(1,1′6,6′,7,7′-hexahydroxy-3,3′-dimethyl-2,2′-binaphthyl-5,5′-diyl)bis(2-methylpropan-1-one)] | ++ |  |  | 
Cc1cc2c(C(=O)c3nc4ccccc4s3)c(O)c(O)cc2c(O)c1-c1c(C)cc2c(C(=O)c3nc4ccccc4s3)c(O)c(O)cc2c1O [Compound XVII, (1,1′,6,6′,7,7′-hexahydroxy-3,3′-dimethyl-2,2′-binaphthyl-5,5′-diyl)bis(benzo[d]thiazol-2-ylmethanone)] | ++ | 90 | Medium | IC50 ([7]; read-out: FPA IC50 (BCL-XL)): 390 nM; Microsomal Stability (T = 1 hr) [3]: 68%
Cc1cc2cc(O)c(O)cc2c(O)c1-c1c(C)cc2cc(O)c(O)cc2c1O [Compound II, 3,3′-dimethyl-2,2′-binaphthyl-1,1′,6,6′,7,7′-hexaol] | + |  |  | 
